The values below come from article PMC6161288, “Bioavailability of Eurycomanone in Its Pure Form and in a Standardised Eurycoma longifolia Water Extract” (Pharmaceutics, 2018).

A short description of data set [1]: Plasma protein binding (rapid equilibrium dialysis), dog. Particulars: pH 7.4, 37 °C, read-out: percentage bound to plasma protein (converted). Format: in vitro ADME. On the procedure: (§1) The ability of eurycomanone to bind plasma protein was analysed in five types of plasma (mice, rat, dog, monkey, and human). Each type of plasma was spiked with eurycomanone (1 mM) to make the 10 µM test concentration of eurycomanone in the plasma. Equilibrium dialysis buffer (500 µL) at pH 7.4 was added to the right chamber in rapid equilibrium dialysis (RED), while the spiked plasma (300 µL) was added to the left chamber. The Teflon base plate was covered with aluminium foil and left on the shaking incubator at 37 °C for 4 h. The matrix was balanced by mixing 100 µL of the equilibrium buffer with the spiked plasma from the left chamber in RED before adding the stop solution (350 µL) to precipitate out the protein. The supernatant (10,000 rpm, 10 min, 4 °C) was collected and analysed using LC-MS/MS. The standards (propranolol, warfarin, and acebutalol) were analysed in duplicates.
(In general: In equilibrium dialysis free small molecules cross a membrane that holds back macromolecules.)

Data set [2] is described as follows: Pharmacokinetics of eurycomanone (pure compound) in rats (intravenous and oral). Format: in vivo. Particulars: male, Wistar, rat, plasma; for AUC(0-t): read-out: AUC0–8. An excerpt: The ethical approval for the animal experiments conducted in India was granted from the Animal Ethics Committee, Aurigene Discovery Technologies, Bangalore, India. Eight male Wistar rats (12 weeks old; weighing 250–350 g) and eight Caeserean Derived-1 (CD-1) mice (weighing 20–30 g) were obtained from the Animal House, Aurigene Discovery Technologies, Bangalore, India. They were supplied with standard rodent diets and drinking water ad libitum. Each rodent species (i.e., rats and mice) were divided into two groups. One group (n = 3 for each rodent species) was administered with eurycomanone via the intravenous route (IV) and another group (n = 3 for each rodent species) via the oral route (PO) using oral gavage intubation needle. Two animals of each of the species were used as a control and they received reverse osmosis water. All rats underwent jugular vein cannulation surgery 72 h prior to the administration of the eurycomanone.
Eurycomanone (rats: 1.5 mg/mL for IV route and 3.0 mg/mL for PO route; mice: 0.5 mg/mL for IV route and 1.0 mg/mL for PO route) samples were prepared fresh on the day of dosing. For the IV administration, eurycomanone was dissolved in 3% NMP and 97% of 10% HPCD in saline. For the oral administration, eurycomanone was dissolved in 3% NMP and 97% of 30% HPCD in saline. Both samples were sonicated before use. The SWE (5 mg/mL for IV route, 10 mg/mL for PO route) was prepared fresh on the day of dosing. For the IV administration, the SWE was dissolved in reverse osmosis water and filtered (0.2 µm pore size) before administration. The SWE for the PO administration was prepared using the same method, except without filtering. The animals were not fasted and doses given were based on the body weights prior to dosing.
Blood specimens (approximately 0.30–0.40 mL via the jugular vein cannula for rats and 0.10–0.20 mL via submanibular bleeding for mice) were collected at time points 0.083 (IV group only), 0.25, 0.5, 1, 2, 4, 6, and 8 h post-dosing with eurycomanone. At the experiment end point, the animals were euthanized by excess isoflurane inhalation followed by cervical dislocation. In the experiment using SWE, the rats were placed in metabolic cages (Techniplast, West Chester, PA, USA) and blood (approximately 0.30–0.40 mL collected via the jugular vein cannula), urine, and faeces specimens were collected at the same time points with the above plus one additional time point of 24 h. Kidney and liver specimens were collected at necropsy, where the rats were euthanized by CO2 inhalation followed by cervical dislocation. All blood specimens were centrifuged (10,000 rpm, 10 min) to obtain plasma and were stored at −80 °C until processed. Urine and faeces specimens were collected into plastic containers on wet ice while the organ specimens were snap-frozen in liquid nitrogen and maintained at −80 °C until processed.
Plasma specimens (100 µL), collected from the eurycomanone experiment were added with the internal standard solution (10 µL). Plasma proteins were precipitated with ACN (300 µL), vortex-mixed for 5 min, and centrifuged at 4000 rpm for 7 min. The supernatant was collected and evaporated using a nitrogen evaporator for 20 min at 50 °C. Thereafter, they were reconstituted with the mobile phase (500 µL) and transferred into LC-MS vials for analysis.
Eurycomanone detection in the pure eurycomanone experiments was done via the LC-MS/MS system consisting of an Agilent 1260 Infinity HPLC system and an AB SCIEX API 4000™ Triple-Quadrupole mass spectrometer equipped with TurboIonSpray® probe and atmospheric pressure chemical ionization (APCI) (AB Sciex LLC, Framingham, MA, USA). Electrospray ionization (ESI) was performed in positive ion mode. The analytical column was Agilent Zorbax Eclipse-C18 (4.6 mm I.D. × 150 mm, 3.5 µm). The mobile phase consisted of 0.1% formic acid (solvent A) and 90% ACN with 0.1% formic acid (solvent B). […]

Details of data set [3]: method as in PMID 27572280. Particulars: cited from earlier work.
A short description of data set [4]: Plasma stability, monkey. Format: in vitro ADME. To be noted: 5 µM, 37 °C, up to 4 h, compared with human, rat and dog plasma. On the procedure: The plasma stability was estimated by preparing 5 µM of eurycomanone in 600 µL plasma in triplicates. The plasma stability of eurycomanone was determined in five types of plasma (mice, rat, dog, monkey, and human). The reaction was kept at 37 °C and ACN (100 µL) was added at timepoints 0, 30 min, and 1, 2, and 4 h to the reaction mixture (100 µL). The supernatant (10,000 rpm, 10 min, 4 °C) was collected and analysed by LC-MS/MS. The standards (propantheline bromide and enalapril) were analysed in triplicates.

A short description of data set [5]: Plasma protein binding (rapid equilibrium dialysis), rat. To be noted: rat, plasma, pH 7.4, rat plasma. Format: in vitro ADME. As for the experimental part: as §1
Data set [6] has as its system plasma protein. The description is as above. Format: in vitro ADME. Particulars: rat plasma, 10 µM, 37 °C, 4 h. As for the experimental part: as §1
The nature of data set [7]: Chemical stability in simulated gastrointestinal fluids. It counts as physicochemical. Particulars: GSF (pH 2), FESSIF (pH 5.0), FASSIF (pH 6.5). As for the experimental part: The chemical stability of eurycomanone was estimated in gastric simulated fluid (GSF), pH 2; fasted simulated intestinal fluid (FASSIF), pH 6.5; fed simulated intestinal fluid (FESSIF), pH 5.0; and in 150 mM NaHCO3 at pH 9.2. Eurycomanone (3 µL) at 5 mM was added to 297 µL of the respective buffers. The mixture (100 µL) was added to 100 µL of ACN at time points 1 and 3 h and sent for LC-MS/MS analysis.

Read-outs that look alike come from different tables or passages of the source.

Take `C=C1[C@@H](O)[C@]2(O)OC[C@]34[C@H]2[C@@]2(C)[C@H](O)C(=O)C=C(C)[C@@H]2C[C@H]3OC(=O)[C@H](O)[C@@]14O` [Eurycomanone]: the fraction unbound at 4 h, 10 µM in data set [1] was 0.322; in data set [5] (10 µM, 37 °C, 4 h, read-out: percentage bound to plasma protein (converted)), 0.699; in data set [5] (read-out: unbound fraction), 0.7. The AUC(0-t) in data set [2] (3 mg/kg intravenous) was 970 ng·h/mL; in data set [2] (30 mg/kg oral), 1150 ng·h/mL. In addition, the Cmax in data set [2] (30 mg/kg oral, read-out: Observed Cmax) was 238 ng/mL; in data set [3] it was 40.43 ng/mL. In addition, in data set [2] (3 mg/kg intravenous, read-out: Half-life (t1/2) (converted)), the half-life is 0.3 h. Also, the clearance in data set [2] (3 mg/kg intravenous, read-out: Plasma Clearance (CL) (converted)) is 45.7 mL/min/kg. Moreover, in data set [2] (3 mg/kg intravenous, read-out: Volume of Distribution at Steady State (Vss)), the Vd was determined as 0.95 L/kg. For the same compound, the bioavailability in data set [2] (30 mg/kg oral vs 3 mg/kg intravenous, read-out: Bioavailability (F)) came to 11.8%. In addition, the Tmax in data set [2] (30 mg/kg oral, read-out: Observed Tmax) stood at 2 h. Besides, the plasma stability entry in data set [4] was “slightly lower”. The “percentage bound to plasma protein” value in data set [6] is on record as 30%. In addition, the “chemical stability (percentage remaining after 3 h of incubation)” value in data set [7] is recorded as “high stability”; in data set [7] (listed as eurycomanone), “chemically stable across all pH values tested”.

The term Cmax denotes the maximum level reached in the sampled fluid or tissue. A word on the bioavailability: it is the share of a dose that reaches the circulation, judged against a reference dose that is usually intravenous. The Tmax is the time at which the peak concentration occurs.
